Measured values: patent US20240287046A1, “COMPOUNDS AND RADIOLIGANDS FOR TARGETING NEUROTENSIN RECEPTOR AND USES THEREOF” (Full-Life Technologies HK Limited, priority 2022, published 2024)

Tests used:
[1] = test system: HT-29 tumor-bearing mice; assay: Biodistribution of radionuclide labeled complexes in HT-29 tumor-bearing mice; type: in vivo, BALB/c nude mice
Procedure: The BALB/c nude mice (Charles River, Beijing) were utilized to establish the xenografted model for biodistribution study. All animal care and experimental procedure were performed by following the animal protocols approved by the ethics committee of China Institute of Radiation Protection.
Briefly, each mouse was inoculated with approximately 4×10^6 ASPC-1 cells (human pancreatic cancer cell line) or HT-29 cells (human colorectal adenocarcinoma cell line) expressing human NTSR-1 by subcutaneous injection at rear flank. After inoculation, the xenografted tumors were allowed to grow for ˜2-4 weeks till the tumor weight reached to about 0.05 to 0.50 g (0.20 g in average).
Biodistribution studies were performed by administrating the radionuclide labeled test compound at a dose of ˜30-50 μCi (100 μL in 0.9% NaCl, ˜1.11-1.85 MBq, with specific activity 30-250 μCi/nmol) to each animal through tail vein injection.
At different time points after the administration, the mice treated with each compound were euthanized. The tissues and organs of the animals in each group were collected, excised, weighed, and analyzed in a PerkinElmer 2480 WIZARD2γ counter, and the percent injected dose (% ID) and % ID/g of each organ or tissue were calculated.

[2] = Stability of ^177Lu labeled complexes in PBS by radio-HPLC; type: physicochemical; settings: incubation at room temperature over 120 h in PBS (pH 7.4) or PBS with 3 mg/mL ascorbic acid
Procedure: Exemplary compounds of the present application were labeled with ^177Lu to evaluate stability of the compounds after radionuclide labeling. Briefly, 4 μL exemplary compounds in DMSO stock solution (2000 μM) and 2 mCi ^177Lu (ITM Isotope Technologies Munich) were mixed together in 0.5 M NaOAc buffer (20-50 μL, pH=4.5), followed by incubation at 95° C. for 15 min. Then the labeled complexes were subject to radio-TLC analysis (a polyamide film using methanol and 1M ammonium acetate as the mobile phase, v/v: 4:1, detected by Mini Scan) and radio-HPLC analysis (column: Shim-pack GIST 5 μm 4.6*150 mm; buffer A: 0.2% formic acid H2O; buffer B: 0.1% formic acid acetonitrile; flow rate: 1 mL/min; gradient: 0-5 min: 10% B to 95% B; then 5-8 min: 95% B).
After radionuclide labeling, the complexes were diluted to ˜1.5 mCi/0.30 mL by PBS (pH 7.4) or PBS with 3 mg/mL ascorbic acid (pH 7.4). Then the diluted samples were incubated at room temperature, followed by stability analysis via radio-HPLC at 0, 4, 24, 48, 72, 120 h of incubation, respectively. FIG. 1 illustrates stability analysis of a representative complex ^177Lu—I-7.

SMILES: COc1cccc(OC)c1-c1cc(C(=O)NC2(C(=O)O)C3CC4CC(C3)CC2C4)nn1-c1ccc(OCCCN(C)CCCN(C)C(=O)CN2CCN(CC(=O)[O-])CCN(CC(=O)[O-])CCN(CC(=O)[O-])CC2)cc1C(C)C.[177Lu+3] (stereo not drawn) [^177Lu-I-7]
- % ID/g (120 h) Blood ([1]; Blood, 120 h): 0.01 ± 0 % ID/g
- % ID/g (1 h) Femur ([1]; Femur, 1 h): 1.95 ± 1.15 % ID/g
- % ID/g (4 h) Femur ([1]; Femur, 4 h): 0.56 ± 0.23 % ID/g
- % ID/g (24 h) Femur ([1]; Femur, 24 h): 0.11 ± 0.02 % ID/g
- % ID/g (72 h) Femur ([1]; Femur, 72 h): 0.06 ± 0.03 % ID/g
- % ID/g (120 h) Femur ([1]; Femur, 120 h): 0.07 ± 0.02 % ID/g
- % ID/g (1 h) Heart ([1]; Heart, 1 h): 5.28 ± 0.74 % ID/g
- % ID/g (4 h) Heart ([1]; Heart, 4 h): 1.31 ± 0.53 % ID/g
- % ID/g (24 h) Heart ([1]; Heart, 24 h): 0.16 ± 0.01 % ID/g
- % ID/g (72 h) Heart ([1]; Heart, 72 h): 0.11 ± 0.01 % ID/g
- % ID/g (120 h) Heart ([1]; Heart, 120 h): 0.05 ± 0.03 % ID/g
- % ID/g (1 h) Intestine ([1]; Intestine, 1 h): 2.84 ± 1.07 % ID/g
- % ID/g (4 h) Intestine ([1]; Intestine, 4 h): 1.71 ± 0.23 % ID/g
- % ID/g (24 h) Intestine ([1]; Intestine, 24 h): 0.66 ± 0.29 % ID/g
- % ID/g (72 h) Intestine ([1]; Intestine, 72 h): 0.29 ± 0.23 % ID/g
- % ID/g (120 h) Intestine ([1]; Intestine, 120 h): 0.19 ± 0.01 % ID/g
- % ID/g (1 h) Kidney ([1]; Kidney, 1 h): 4.41 ± 2.41 % ID/g
- % ID/g (4 h) Kidney ([1]; Kidney, 4 h): 1.73 ± 0.79 % ID/g
- % ID/g (24 h) Kidney ([1]; Kidney, 24 h): 1.43 ± 1.04 % ID/g
- % ID/g (72 h) Kidney ([1]; Kidney, 72 h): 0.7 ± 0.3 % ID/g
- % ID/g (120 h) Kidney ([1]; Kidney, 120 h): 0.4 ± 0.15 % ID/g
- % ID/g (1 h) Liver ([1]; Liver, 1 h): 4.35 ± 1.78 % ID/g
- % ID/g (4 h) Liver ([1]; Liver, 4 h): 2.59 ± 1.08 % ID/g
- % ID/g (24 h) Liver ([1]; Liver, 24 h): 0.85 ± 0.38 % ID/g
- % ID/g (72 h) Liver ([1]; Liver, 72 h): 0.57 ± 0.21 % ID/g
- % ID/g (120 h) Liver ([1]; Liver, 120 h): 0.24 ± 0.04 % ID/g
- % ID/g (1 h) Lung ([1]; Lung, 1 h): 4.47 ± 3.31 % ID/g
- % ID/g (4 h) Lung ([1]; Lung, 4 h): 1.81 ± 0.77 % ID/g
- % ID/g (24 h) Lung ([1]; Lung, 24 h): 0.35 ± 0.14 % ID/g
- % ID/g (72 h) Lung ([1]; Lung, 72 h): 0.23 ± 0.01 % ID/g
- % ID/g (120 h) Lung ([1]; Lung, 120 h): 0.07 ± 0.02 % ID/g
- % ID/g (1 h) Muscle ([1]; Muscle, 1 h): 2.2 ± 1.08 % ID/g
- % ID/g (4 h) Muscle ([1]; Muscle, 4 h): 0.44 ± 0.26 % ID/g
- % ID/g (24 h) Muscle ([1]; Muscle, 24 h): 0.05 ± 0.03 % ID/g
- % ID/g (72 h) Muscle ([1]; Muscle, 72 h): 0.03 ± 0.01 % ID/g
- % ID/g (120 h) Muscle ([1]; Muscle, 120 h): 0.04 ± 0.02 % ID/g
- % ID/g (1 h) Pancreas ([1]; Pancreas, 1 h): 1.48 ± 0.29 % ID/g
- % ID/g (4 h) Pancreas ([1]; Pancreas, 4 h): 0.38 ± 0.17 % ID/g
- % ID/g (24 h) Pancreas ([1]; Pancreas, 24 h): 0.07 ± 0.04 % ID/g
- % ID/g (72 h) Pancreas ([1]; Pancreas, 72 h): 0.03 ± 0.01 % ID/g
- % ID/g (120 h) Pancreas ([1]; Pancreas, 120 h): 0.04 ± 0.01 % ID/g
- % ID/g (1 h) Spleen ([1]; Spleen, 1 h): 1.73 ± 1.08 % ID/g
- % ID/g (4 h) Spleen ([1]; Spleen, 4 h): 0.71 ± 0.41 % ID/g
- % ID/g (24 h) Spleen ([1]; Spleen, 24 h): 0.14 ± 0.03 % ID/g
- % ID/g (72 h) Spleen ([1]; Spleen, 72 h): 0.08 ± 0.01 % ID/g
- % ID/g (120 h) Spleen ([1]; Spleen, 120 h): 0.1 ± 0.04 % ID/g
- % ID/g (1 h) Stomach ([1]; Stomach, 1 h): 2.58 ± 1.00 % ID/g
- % ID/g (4 h) Stomach ([1]; Stomach, 4 h): 0.76 ± 0.38 % ID/g
- % ID/g (24 h) Stomach ([1]; Stomach, 24 h): 0.14 ± 0.03 % ID/g
- % ID/g (72 h) Stomach ([1]; Stomach, 72 h): 0.06 ± 0.01 % ID/g
- % ID/g (120 h) Stomach ([1]; Stomach, 120 h): 0.061 ± 0.03 % ID/g
- % ID/g (1 h) Tumor ([1]; Tumor, 1 h): 17.04 ± 5.68 % ID/g
- % ID/g (4 h) Tumor ([1]; Tumor, 4 h): 16.52 ± 12.39 % ID/g
- % ID/g (24 h) Tumor ([1]; Tumor, 24 h): 20.35 ± 2.62 % ID/g
- % ID/g (72 h) Tumor ([1]; Tumor, 72 h): 9.3 ± 7.53 % ID/g
- % ID/g (120 h) Tumor ([1]; Tumor, 120 h): 6.42 ± 3.46 % ID/g
- stability of the labeled complex [2]: remained stable and no significant degradation was detected
